ChEMBL document CHEMBL1201862, “PubChem BioAssay data set” (2004)
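Cultured in 96-well plates, cells were exposed to test compound for 48 hours across five concentrations. GI50 = concentration required for 50% inhibition of growth.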 Activity calls are given as the source filed them. No stated cut-off is given here; in the data, active = GI50 up to about 1.1 µM and inactive = higher.

Assays:
Test in all cases: inhibition of tumour cell growth, NCI panel, 48 h
KM12 = system: KM12
SN12C = system: SN12C
LXFL 529 = system: LXFL 529
ACHN = system: ACHN
SF-268 = system: SF-268
IGROV-1 = system: IGROV-1
UACC-62 = system: UACC-62
HCC 2998 = system: HCC 2998
HOP-62 = system: HOP-62
A549 = system: A549
UO-31 = system: UO-31
SF-539 = system: SF-539
SK-MEL-5 = system: SK-MEL-5
CAKI-1 = system: CAKI-1
PC-3 = system: PC-3
Hs-578T = system: Hs-578T
DU-145 = system: DU-145
MDA-N = system: MDA-N
MDA-MB-231 = system: MDA-MB-231
BT-549 = system: BT-549

Measured: GI50

Cc1nc2nnnn2c2c1C(=O)Nc1ccccc1N2
inactive: KM12 > 100 µM | SN12C > 100 µM | LXFL 529 > 100 µM | ACHN 73.3 µM | SF-268 > 100 µM | IGROV-1 > 100 µM | UACC-62 > 100 µM | HCC 2998 > 100 µM | HOP-62 71.9 µM | A549 62.1 µM | UO-31 > 100 µM | SF-539 > 100 µM

Cn1c(=O)c2c(nc3n2CCC(=O)N3)n(C)c1=O
inactive: KM12 > 100 µM | SN12C > 100 µM | SK-MEL-5 > 100 µM | LXFL 529 > 100 µM | ACHN > 100 µM | CAKI-1 > 100 µM | SF-268 > 100 µM | IGROV-1 > 100 µM | UACC-62 > 100 µM | HOP-62 > 100 µM | A549 > 100 µM | UO-31 > 100 µM | SF-539 > 100 µM

COc1ccc(NC(C(N)=O)c2cc3cc(Br)ccc3nc2Cl)cc1 (stereo unspecified)
inactive: PC-3 44.6 µM | Hs-578T > 100 µM | KM12 48.4 µM | DU-145 > 100 µM | SN12C > 100 µM | SK-MEL-5 53.5 µM | ACHN > 100 µM | CAKI-1 > 100 µM | SF-268 76.4 µM | IGROV-1 25.5 µM | UACC-62 52.7 µM | HCC 2998 73.8 µM | HOP-62 59.8 µM | MDA-N 28.1 µM | MDA-MB-231 90.6 µM | BT-549 31.4 µM | A549 91.8 µM | UO-31 > 100 µM | SF-539 19.1 µM

CC(C)[Si](OC/C(=C/COC(C)(C)C)[C@H]1CC=C(C(=O)c2ccccc2N2CN(C)C(=O)N(C)C2)C1)(C(C)C)C(C)C
inactive: PC-3 5.6 µM | Hs-578T 2.6 µM | KM12 13.7 µM | DU-145 13.5 µM | SN12C 12.4 µM | SK-MEL-5 9.95 µM | ACHN 14.7 µM | CAKI-1 4.29 µM | SF-268 6.58 µM | IGROV-1 12.1 µM | UACC-62 10.8 µM | HCC 2998 12.4 µM | HOP-62 16 µM | MDA-N 2.18 µM | MDA-MB-231 11.9 µM | BT-549 13.4 µM | A549 9.53 µM | UO-31 11.1 µM | SF-539 6.78 µM

O=C(O)CC1NC(/C(=C/c2ccccc2O)NC(=O)c2ccccc2)OC1=O (stereo unspecified)
inactive: PC-3 49 µM | Hs-578T 24.7 µM | KM12 5.14 µM | DU-145 > 79.6 µM | SN12C 48.8 µM | SK-MEL-5 > 73.5 µM | ACHN 19.3 µM | CAKI-1 > 56.1 µM | SF-268 > 23.3 µM | IGROV-1 14.3 µM | UACC-62 25.8 µM | HCC 2998 > 40.4 µM | HOP-62 14 µM | MDA-N 29.4 µM | MDA-MB-231 22.1 µM | BT-549 13.9 µM | A549 > 100 µM | UO-31 33.9 µM | SF-539 22.3 µM

CCCC[C@H]1C(=O)O[C@H](C)[C@H](NC(=O)c2cccc(NC=O)c2O)C(=O)O[C@@H](C)[C@@H]1OC(=O)CC(C)C [ANTIMYCIN A3]
active: PC-3 0.278 µM | KM12 0.444 µM | SK-MEL-5 < 0.01 µM | UACC-62 0.16 µM | A549 0.0441 µM
inactive: Hs-578T 13 µM | DU-145 3.55 µM | SN12C 14.2 µM | ACHN 1.15 µM | CAKI-1 11.9 µM | SF-268 6.56 µM | IGROV-1 3.94 µM | HCC 2998 10.9 µM | HOP-62 8.41 µM | MDA-N 2.43 µM | MDA-MB-231 4.37 µM | BT-549 1.68 µM | UO-31 4.94 µM | SF-539 12.8 µM

O=C1C=CC(=O)C(CNc2ccc(C(=O)OC34CC5CC(CC(C5)C3)C4)cc2)=C1
inactive: PC-3 6.07 µM | Hs-578T 2.38 µM | KM12 5.94 µM | DU-145 19.4 µM | SN12C 11.3 µM | SK-MEL-5 4.38 µM | ACHN 6.28 µM | SF-268 11.9 µM | IGROV-1 1.54 µM | UACC-62 5.14 µM | HCC 2998 15 µM | HOP-62 11.4 µM | MDA-N 4.73 µM | MDA-MB-231 14 µM | BT-549 5.12 µM | A549 16.1 µM | UO-31 4.24 µM | SF-539 2.49 µM
active: CAKI-1 0.753 µM

C/C=C\C1OC1(C)c1cc(=O)c2c(C)cc3c(c2o1)C(=O)c1c(O)c(C2CC(C)(N(C)C)C(OC(C)=O)C(C)O2)cc(C2CC(N(C)C)C(O)C(C)O2)c1C3=O (stereo unspecified)
active: PC-3 0.00405 µM | Hs-578T 0.00766 µM | KM12 0.0042 µM | DU-145 0.00405 µM | SN12C < 0.00375 µM | SK-MEL-5 0.00414 µM | ACHN < 0.00375 µM | CAKI-1 < 0.00375 µM | SF-268 0.00516 µM | IGROV-1 0.00569 µM | UACC-62 < 0.00375 µM | HCC 2998 < 0.00375 µM | HOP-62 < 0.00375 µM | MDA-N 0.0043 µM | MDA-MB-231 0.0067 µM | BT-549 0.00596 µM | A549 < 0.00375 µM | UO-31 0.00509 µM | SF-539 0.00433 µM

COC(=O)/C(=N\NC(N)=S)C(C#N)c1ccccc1 (stereo unspecified)
inactive: KM12 > 100 µM | SN12C > 100 µM | SK-MEL-5 > 100 µM | LXFL 529 > 100 µM | ACHN > 100 µM | SF-268 > 100 µM | IGROV-1 > 100 µM | UACC-62 > 100 µM | HCC 2998 > 100 µM | HOP-62 > 100 µM | A549 > 100 µM | UO-31 > 100 µM | SF-539 > 100 µM

C/C(=N\NC1=NCCN1)c1cn(C2=NCCN2)nc1C
inactive: PC-3 > 100 µM | Hs-578T > 100 µM | KM12 > 100 µM | DU-145 > 100 µM | SN12C > 100 µM | SK-MEL-5 > 100 µM | ACHN > 100 µM | CAKI-1 > 100 µM | SF-268 > 100 µM | IGROV-1 > 100 µM | UACC-62 > 100 µM | HCC 2998 > 100 µM | HOP-62 > 100 µM | MDA-N > 100 µM | MDA-MB-231 > 100 µM | BT-549 > 100 µM | A549 > 100 µM | UO-31 > 100 µM | SF-539 > 100 µM

O=C1C2CC=CCC2C(=O)C12CCc1ccccc12 (stereo unspecified)
inactive: SN12C > 100 µM | LXFL 529 > 100 µM | ACHN > 100 µM | CAKI-1 > 100 µM | SF-268 > 100 µM | IGROV-1 > 100 µM | UACC-62 > 100 µM | HCC 2998 > 100 µM | HOP-62 > 100 µM | A549 > 100 µM | UO-31 > 100 µM

CC(C)(C)CC(C)(C)c1ccc(O)c(C[N+](C)(C)[O-])c1
inactive: PC-3 85.7 µM | Hs-578T 65.6 µM | KM12 > 100 µM | DU-145 > 100 µM | SN12C > 100 µM | SK-MEL-5 58.9 µM | ACHN > 100 µM | CAKI-1 > 100 µM | SF-268 85.5 µM | IGROV-1 > 100 µM | UACC-62 > 100 µM | HCC 2998 31.9 µM | HOP-62 > 100 µM | MDA-N > 100 µM | MDA-MB-231 > 100 µM | BT-549 > 100 µM | A549 > 100 µM | UO-31 60.1 µM | SF-539 > 100 µM
